US10781204B2, “TYK2 inhibitors and uses thereof” (Nimbus Lakshmi, Inc., priority 2015, dated 2020)
pEC50, pKi: −log10 of the molar value.

How the values were obtained:
[1] = tested on: Tyk2-pSTAT4 (IL-12 induced pSTAT4); assay: IL-12 induced pSTAT4 in human PBMC; assay type: cell-based; conditions: Homo sapiens, PBMC, 0.5 h, 1.7 ng/mL IL-12, 30 minutes
Procedure: Human PBMC are isolated from buffy coat and are stored frozen for assays as needed. Cells for assay are thawed and resuspended in complete media containing serum, then cells are diluted to 1.67 E6 cells/ml so that 120 ul per well is 200,000 cells. 15 ul of compound or DMSO is added to the well at the desired concentrations and incubated at 1 hr at 37 C. 15 ul of stimulus (final concentration of 1.7 ng/mL IL-12) is added for 30 minutes prior to pSTAT4 and total STAT4 analysis using cell lysates prepared and analyzed by MSD reagents as per manufacturer protocol. The final DMSO concentration of compound in the assay is 0.1%.

[2] = molecular target: TYK2 (Homo sapiens (Human), UniProt P29597); assay: Tyk2 radioactive kinase assay; assay type: biochemical; conditions: ATP 10 μM
Chain of TYK2 (P29597 whole entry): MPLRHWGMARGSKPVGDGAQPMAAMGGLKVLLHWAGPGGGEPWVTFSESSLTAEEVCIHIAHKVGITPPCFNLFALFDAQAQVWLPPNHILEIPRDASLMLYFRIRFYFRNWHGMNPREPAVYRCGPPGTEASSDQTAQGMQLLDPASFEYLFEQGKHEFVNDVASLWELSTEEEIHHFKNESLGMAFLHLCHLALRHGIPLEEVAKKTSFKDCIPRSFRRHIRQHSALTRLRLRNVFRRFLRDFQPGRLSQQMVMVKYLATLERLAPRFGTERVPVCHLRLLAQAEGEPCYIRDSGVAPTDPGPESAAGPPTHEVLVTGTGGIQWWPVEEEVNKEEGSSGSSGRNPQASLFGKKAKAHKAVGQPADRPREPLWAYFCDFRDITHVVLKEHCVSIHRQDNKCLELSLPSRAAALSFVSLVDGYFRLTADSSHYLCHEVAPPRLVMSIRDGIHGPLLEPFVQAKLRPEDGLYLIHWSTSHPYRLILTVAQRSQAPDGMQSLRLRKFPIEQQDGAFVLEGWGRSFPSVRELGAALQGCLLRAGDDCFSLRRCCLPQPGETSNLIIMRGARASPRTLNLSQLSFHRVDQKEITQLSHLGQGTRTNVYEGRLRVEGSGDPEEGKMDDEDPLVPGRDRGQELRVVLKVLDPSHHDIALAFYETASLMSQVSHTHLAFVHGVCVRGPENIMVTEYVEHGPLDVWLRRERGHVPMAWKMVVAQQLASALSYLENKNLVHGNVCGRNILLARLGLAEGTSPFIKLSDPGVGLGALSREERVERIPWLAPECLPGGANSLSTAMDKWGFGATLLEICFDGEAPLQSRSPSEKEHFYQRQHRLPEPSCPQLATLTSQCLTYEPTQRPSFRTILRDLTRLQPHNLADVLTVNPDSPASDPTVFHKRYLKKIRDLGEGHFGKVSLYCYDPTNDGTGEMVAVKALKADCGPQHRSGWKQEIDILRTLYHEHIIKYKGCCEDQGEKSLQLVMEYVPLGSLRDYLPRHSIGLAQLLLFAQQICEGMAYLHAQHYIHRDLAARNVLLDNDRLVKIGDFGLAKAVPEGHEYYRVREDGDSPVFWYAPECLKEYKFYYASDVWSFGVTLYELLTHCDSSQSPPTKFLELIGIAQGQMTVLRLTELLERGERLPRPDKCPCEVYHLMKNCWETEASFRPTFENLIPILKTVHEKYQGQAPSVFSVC
Procedure: (§1) Peptide substrate, [KKSRGDYMTMQIG], (20 μM) is prepared in reaction buffer (20 mM Hepes pH 7.5, 10 mM MgCl2, 1 mM EGTA, 0.02% Brij35, 0.02 mg/mL BSA, 0.1 mM […], 2 mM DTT, 1% DMSO. TYK2 (Invitrogen) kinase is added, followed by compounds in DMSO. ^33PATP is added to initiate the reaction with ATP at 10 μM. Kinase reaction is incubated for 120 min at room temp and reactions are spotted onto P81 ion exchange paper (Whatman #3698-915), and then washed extensively in 0.75% phosphoric acid, prior to reading the radioactivity counts. For JAK2 (Invitrogen) kinase assay the peptide substrate poly[Glu:Tyr] (4:1), 0.2 mg/ml is used, in the reaction carried out the same as for TYK2.

[3] = molecular target: JAK2 (Homo sapiens (Human), UniProt O60674); assay: JAK2 radioactive kinase assay; assay type: biochemical; conditions: ATP 10 μM
Chain of JAK2 (O60674 whole entry): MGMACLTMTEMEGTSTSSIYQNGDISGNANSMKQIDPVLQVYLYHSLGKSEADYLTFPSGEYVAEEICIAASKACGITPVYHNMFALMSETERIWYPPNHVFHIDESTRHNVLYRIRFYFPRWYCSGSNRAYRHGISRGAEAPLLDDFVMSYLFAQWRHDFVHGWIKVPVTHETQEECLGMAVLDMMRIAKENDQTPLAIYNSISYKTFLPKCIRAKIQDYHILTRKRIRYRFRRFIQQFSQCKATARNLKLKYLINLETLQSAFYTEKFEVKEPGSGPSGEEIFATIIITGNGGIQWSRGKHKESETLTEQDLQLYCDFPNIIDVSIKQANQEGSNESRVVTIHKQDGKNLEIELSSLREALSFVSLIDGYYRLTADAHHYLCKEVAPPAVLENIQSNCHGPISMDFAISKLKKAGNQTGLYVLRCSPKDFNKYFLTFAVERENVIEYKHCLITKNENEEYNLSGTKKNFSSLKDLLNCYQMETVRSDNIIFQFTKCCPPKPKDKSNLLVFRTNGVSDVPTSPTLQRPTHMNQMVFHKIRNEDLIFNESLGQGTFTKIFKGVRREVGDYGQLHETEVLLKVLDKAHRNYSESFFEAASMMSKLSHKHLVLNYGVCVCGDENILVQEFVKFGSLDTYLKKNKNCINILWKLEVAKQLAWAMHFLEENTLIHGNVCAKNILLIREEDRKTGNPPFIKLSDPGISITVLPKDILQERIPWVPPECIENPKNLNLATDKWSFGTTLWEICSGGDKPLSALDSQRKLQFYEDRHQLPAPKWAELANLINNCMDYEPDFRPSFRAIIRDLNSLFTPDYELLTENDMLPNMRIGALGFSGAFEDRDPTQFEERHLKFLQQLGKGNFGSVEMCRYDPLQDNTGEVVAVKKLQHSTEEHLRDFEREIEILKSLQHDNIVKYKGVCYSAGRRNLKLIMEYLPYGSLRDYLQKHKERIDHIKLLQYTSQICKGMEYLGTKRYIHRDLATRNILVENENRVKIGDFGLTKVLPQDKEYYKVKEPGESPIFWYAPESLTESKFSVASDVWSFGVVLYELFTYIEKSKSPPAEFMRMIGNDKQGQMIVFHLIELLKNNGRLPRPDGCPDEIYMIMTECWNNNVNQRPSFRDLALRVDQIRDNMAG
Procedure: as §1

pEC50 [1] | pKi [2] | pKi [3] | SMILES
5.70 to 7.00 | 8.00 to 10.00 | 8.00 to 10.00 | N#Cc1cccc(F)c1-c1cc(-n2ccc(N3CCC[C@@H](N)C3)n2)c2c(n1)CNC2=O [I-73, (R)-2-(4-(3-(3-aminopiperidin-1-yl)-1H-pyrazol-1-yl)-5-oxo-6,7-dihydro-5H-pyrrolo[3,4-b]pyridin-2-yl)-3-fluorobenzonitrile]
7.00 to 7.52 | 8.00 to 10.00 | 7.00 to 8.00 | N#Cc1cccc(F)c1-c1cc(-n2cc3c(n2)CCCN3)c2c(n1)CNC2=O [I-77, 3-fluoro-2-(5-oxo-4-(4,5,6,7-tetrahydro-2H-pyrazolo[4,3-b]pyri-din-2-yl)-6,7-dihydro-5H-pyrrolo[3,4-b]pyridin-2-yl)benzonitrile]
5.70 to 7.00 | 8.00 to 10.00 | 7.00 to 8.00 | N#Cc1cccc(F)c1-c1cc(-n2ccc(N3CCCC(CO)C3)n2)c2c(n1)CNC2=O (stereo not drawn) [I-86, 3-fluoro-2-(4-(3-(3-(hydroxymethyl)piperidin-1-yl)-1H-pyrazol-1-yl)-5-oxo-6,7-dihydro-5H-pyrrolo[3,4-b]pyridin-2-yl)benzonitrile]
7.00 to 7.52 | 8.00 to 10.00 | 7.00 to 8.00 | C[C@]1(O)CCN(c2ccn(-c3cc(-c4c(F)cccc4C#N)nc4c3C(=O)NC4)n2)C1 [I-93, (S)-3-fluoro-2-(4-(3-(3-hydroxy-3-methylpyrrolidin-1-yl)-1H-pyrazol-1-yl)-5-oxo-6,7-dihydro-5H-pyrrolo[3,4-b]pyridin-2-yl)benzonitrile]
5.70 to 7.00 | 8.00 to 10.00 | 7.00 to 8.00 | N#Cc1cccc(F)c1-c1cc(-n2ccc(N3CC[C@@H](O)[C@@H](O)C3)n2)c2c(n1)CNC2=O [I-105, 2-(4-(3-((3S,4R)-3,4-dihydroxypiperidin-1-yl)-1H-pyrazol-1-yl)-5-oxo-6,7-dihydro-5H-pyrrolo[3,4-b]pyridin-2-yl)-3-fluorobenzonitrile]
7.00 to 7.52 | 8.00 to 10.00 | 7.00 to 8.00 | N#Cc1cccc(F)c1-c1cc(-n2ccc(N3CC[C@@H](C#N)C3)n2)c2c(n1)CNC2=O [I-127, (R)-1-(1-(2-(2-cyano-6-fluorophenyl)-5-oxo-6,7-dihydro-5H-pyrrolo[3,4-b]pyridin-4-yl)-1H-pyrazol-3-yl)pyrrolidine-3-carbonitrile]
7.00 to 7.52 | 8.00 to 10.00 | 7.00 to 8.00 | N#Cc1cccc(F)c1-c1cc(-n2ccc(N3CC[C@H](C#N)C3)n2)c2c(n1)CNC2=O [I-128, (S)-1-(1-(2-(2-cyano-6-fluorophenyl)-5-oxo-6,7-dihydro-5H-pyrrolo[3,4-b]pyridin-4-yl)-1H-pyrazol-3-yl)pyrrolidine-3-carbonitrile]
5.70 to 7.00 | 8.00 to 10.00 | 7.00 to 8.00 | N#Cc1cccc(F)c1-c1cc(-n2ccc(N3CCOC[C@H](O)C3)n2)c2c(n1)CNC2=O [I-132, (R)-3-fluoro-2-(4-(3-(6-hydroxy-1,4-oxazepan-4-yl)-1H-pyrazol-1-yl)-5-oxo-6,7-dihydro-5H-pyrrolo[3,4-b]pyridin-2-yl)benzonitrile]
5.70 to 7.00 | 8.00 to 10.00 | 8.00 to 10.00 | CS(=O)(=O)N[C@@H]1CCN(c2ccn(-c3cc(-c4c(F)cccc4C#N)nc4c3C(=O)NC4)n2)C1 [I-134, (R)-N-(1-(1-(2-(2-cyano-6-fluorophenyl)-5-oxo-6,7-dihydro-5H-pyrrolo[3,4-b]pyridin-4-yl)-1H-pyrazol-3-yl)pyrrolidin-3-yl)methanesulfonamide]
5.70 to 7.00 | 8.00 to 10.00 | 8.00 to 10.00 | N#Cc1cccc(F)c1-c1cc(-n2ccc(N3CCCNC(=O)C3)n2)c2c(n1)CNC2=O [I-140, 3-fluoro-2-(5-oxo-4-(3-(3-oxo-1,4-diazepan-1-yl)-1H-pyrazol-1-yl)-6,7-dihydro-5H-pyrrolo[3,4-b]pyridin-2-yl)benzonitrile]
7.00 to 7.52 | 10.00 to 11.05 | 8.00 to 10.00 | N#Cc1cccc(F)c1-c1cc(-n2ccc(N3CCC(F)C(O)C3)n2)c2c(n1)CNC2=O (stereo not drawn) [I-160, 3-fluoro-2-(4-(3-(4-fluoro-3-hydroxypiperidin-1-yl)-1H-pyrazol-1-yl)-5-oxo-6,7-dihydro-5H-pyrrolo[3,4-b]pyridin-2-yl)benzonitrile]
5.70 to 7.00 | 8.00 to 10.00 | 8.00 to 10.00 | N#Cc1cccc(F)c1-c1cc(-n2ccc(N3CCC[C@@H](C(=O)N4CCCC4)C3)n2)c2c(n1)CNC2=O [I-167, (R)-3-fluoro-2-(5-oxo-4-(3-(3-(pyrrolidine-1-carbonyl)piperidin-1-yl)-1H-pyrazol-1-yl)-6,7-dihydro-5H-pyrrolo[3,4-b]pyridin-2-yl)benzonitrile]
7.00 to 7.52 | 8.00 to 10.00 | 8.00 to 10.00 | N#Cc1cccc(F)c1-c1cc(-n2ccc(N3C[C@@H]4OCCO[C@@H]4C3)n2)c2c(n1)CNC2=O [I-169, 3-fluoro-2-(4-(3-((4aR,7aS)-hexahydro-6H-[1,4]dioxino[2,3-c]pyrrol-6-yl)-1H-pyrazol-1-yl)-5-oxo-6,7-dihydro-5H-pyrrolo[3,4-b]pyridin-2-yl)benzonitrile]
5.70 to 7.00 | 8.00 to 10.00 | 6.00 to 7.00 | N#Cc1cccc(F)c1-c1cc(-n2ccc(N3CCNC(=O)C3)n2)c2c(n1)CNC2=O [I-175, 3-fluoro-2-(5-oxo-4-(3-(3-oxopiperazin-1-yl)-1H-pyrazol-1-yl)-6,7-dihydro-5H-pyrrolo[3,4-b]pyridin-2-yl)benzonitrile]
7.00 to 7.52 | 8.00 to 10.00 | 8.00 to 10.00 | C[C@@]1(O)CN(c2ccn(-c3cc(-c4c(F)cccc4C#N)nc4c3C(=O)NC4)n2)CC[C@H]1O [I-182, 2-(4-(3-((3R,4R)-3,4-dihydroxy-3-methylpiperidin-1-yl)-1H-pyrazol-1-yl)-5-oxo-6,7-dihydro-5H-pyrrolo[3,4-b]pyridin-2-yl)-3-fluorobenzonitrile]
5.70 to 7.00 | 10.00 to 11.05 | 8.00 to 10.00 | CC1(C)C(O)CCN1c1ccn(-c2cc(-c3c(F)cccc3C#N)nc3c2C(=O)NC3)n1 (stereo not drawn) [I-187, 3-fluoro-2-(4-(3-(3-hydroxy-2,2-dimethylpyrrolidin-1-yl)-1H-pyrazol-1-yl)-5-oxo-6,7-dihydro-5H-pyrrolo[3,4-b]pyridin-2-yl)benzonitrile]
5.70 to 7.00 | 8.00 to 10.00 | 8.00 to 10.00 | [2H]C1([2H])N(c2ccn(-c3cc(-c4c(F)cccc4C#N)nc4c3C(=O)NC4)n2)C([2H])([2H])C([2H])(O)C1([2H])[2H] (stereo not drawn) [I-194, 3-fluoro-2-(4-(3-(3-hydroxypyrrolidin-1-yl-2,2,3,4,4,5,5-d7)-1H-pyrazol-1-yl)-5-oxo-6,7-dihydro-5H-pyrrolo[3,4-b]pyridin-2-yl)benzonitrile]
5.70 to 7.00 | 8.00 to 10.00 | 7.00 to 8.00 | N#Cc1cccc(F)c1-c1cc(-n2ccc(N3CC[C@@](O)(C(=O)N4CCCC4)C3)n2)c2c(n1)CNC2=O [I-197, (S)-3-fluoro-2-(4-(3-(3-hydroxy-3-(pyrrolidine-1-carbonyl)-pyrrolidin-1-yl)-1H-pyrazol-1-yl)-5-oxo-6,7-dihydro-5H-pyrrolo[3,4-b]pyridin-2-yl)benzonitrile]
5.70 to 7.00 | 8.00 to 10.00 | 7.00 to 8.00 | N#Cc1cccc(F)c1-c1cc(-n2ccc(N3CC[C@]4(C3)OC[C@@H](O)CO4)n2)c2c(n1)CNC2=O [I-222, 3-fluoro-2-(4-(3-((5s,8s)-8-hydroxy-6,10-dioxa-2-azaspiro[4.5]decan-2-yl)-1H-pyrazol-1-yl)-5-oxo-6,7-dihydro-5H-pyrrolo[3,4-b]pyridin-2-yl)benzonitrile]
